Measurements published in PMC9558053, “Development of a novel high-throughput screen for the identification of new inhibitors of protein S-acylation” (The Journal of Biological Chemistry, 2022).

Target: T1, human zDHHC17 (Homo sapiens, UniProt Q8IUH5)
T1 construct: expressed in transfected cells; host or cells: HEK293T
Experiment: GFP-SNAP25b S-acylation in HEK293T cells co-expressing zDHHC17
Assay type: cell-based
Conditions: in cellulo HEK293T, compound 25 μM; for inhibition at 25 µM: HEK-293T, read-out: SNAP25 S-acylation inhibition (%), zDHHC17; for SNAP25 S-acylation inhibition (%), zDHHC17: 25 µM
Description: We next investigated whether the identified compounds were effective at inhibiting zDHHC enzyme isoforms other than zDHHC2 (Fig. 6 and Table 1). […] We therefore treated cells coexpressing GFP-SNAP25 and each of these zDHHC enzymes with 25 μM of TTZ-1 and TTZ-2 and studied the subsequent effect on SNAP25 S-acylation. […] Importantly, the level of enzyme expression was unaffected by the compounds. […] As any major differences in the expression levels of the different enzymes could in theory contribute to the apparent differential effects of TTZ-1 and TTZ-2, we directly compared the expression of zDHHC2, zDHHC3, zDHHC7, zDHHC15, and zDHHC17 when transfected in HEK293T cells together with GFP-SNAP25.
Figure 6 Activity of TTZ-1 and TTZ-2 against SNAP25 S-acylation by human zDHHC2, zDHHC3, zDHHC7, zDHHC15, and zDHHC17 expressed in mammalian cells.A–E, HEK293T cells were transfected with a plasmid encoding GFP-SNAP25b together with either a control plasmid pEF-BOS-HA (pEF) or a plasmid encoding either HA-tagged human zDHHC2 (zD2) (A), zDHHC3 (zD3) (B), zDHHC7 (zD7) (C), zDHHC15 (zD15) (D), or zDHHC17 (zD17) (E) for 24 h. Cells were then preincubated for 4 h with TTZ-1 or TTZ-2 (25 μM final) or DMSO control before metabolic labeling with 100 μM C16:0-azide for 4 h. Cells were lysed, and proteins having incorporated C16:0-azide were labeled by click chemistry with an alkyne-IR800 dye. Protein samples were then resolved by SDS-PAGE and transferred to nitrocellulose membranes that were first stained with an infrared-680 total protein stain. Membranes were then destained and probed with an anti-HA antibody (IR680), followed by an anti-GFP antibody (IR680). Representative images are shown, and panels are presented in the following order (from top to bottom): click chemistry signal (Click [IR800]), GFP and HA immunoblots (IR680), and Total Protein Stain (IR680). Positions of the molecular mass markers (in kilodalton) are indicated on the right side of the membranes. Three independent experiments were performed either in duplicate or in triplicate, and the quantification data were gathered on the graphs below each set of membranes. […] Filled circles represent individual samples. […] Filled circles represent individual samples. Statistical analysis (ANOVA) was performed to test whether there was a significant difference between the zDHHC expression of cells treated with DMSO as a control versus similar samples treated with TTZ-1 or TTZ-2 (∗∗p < 0.01). F, samples from A, B, C, D, and E (expressing GFP-SNAP25 and HA-tagged zDHHC enzymes and treated with DMSO) were loaded on an SDS-PAGE gel and transferred to a nitrocellulose membrane. The membrane was probed for the expression of the HA-tagged enzymes with an anti-HA antibody (IR680). […]

T1 sequence (Q8IUH5 whole entry): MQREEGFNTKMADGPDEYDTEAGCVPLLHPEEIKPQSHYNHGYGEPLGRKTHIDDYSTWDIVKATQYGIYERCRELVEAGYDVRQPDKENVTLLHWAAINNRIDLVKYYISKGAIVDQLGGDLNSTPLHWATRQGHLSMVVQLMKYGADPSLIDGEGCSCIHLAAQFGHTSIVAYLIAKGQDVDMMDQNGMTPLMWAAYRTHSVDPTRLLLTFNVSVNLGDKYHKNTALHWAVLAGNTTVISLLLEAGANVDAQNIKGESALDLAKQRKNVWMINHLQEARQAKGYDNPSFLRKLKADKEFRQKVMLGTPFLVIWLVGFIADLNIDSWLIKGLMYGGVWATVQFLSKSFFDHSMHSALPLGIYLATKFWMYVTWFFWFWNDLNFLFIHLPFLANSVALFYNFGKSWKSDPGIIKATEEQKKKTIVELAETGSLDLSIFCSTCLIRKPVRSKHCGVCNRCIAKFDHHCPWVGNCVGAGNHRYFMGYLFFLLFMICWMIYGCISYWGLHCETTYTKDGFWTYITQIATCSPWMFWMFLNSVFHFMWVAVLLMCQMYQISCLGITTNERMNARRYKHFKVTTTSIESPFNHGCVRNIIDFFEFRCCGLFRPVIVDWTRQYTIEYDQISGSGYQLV

Compound	inhibition at 25 µM	SNAP25 S-acylation inhibition (%), zDHHC17
O=C(Nc1cccc2c1OC(c1nnn[nH]1)CN2)c1ccc(OCCCCc2ccccc2)cc1 (stereo not shown) [TTZ-2, N-(2-(1H-Tetrazol-5-yl)-3,4-dihydro-2H-benzo[b][1,4]oxazin-8-yl)-4-(4-phenylbutoxy)benzamide]	35 to 40%	39 ± 7%
CCCCCCCOc1ccc(C(=O)Nc2cccc3c2OC(c2nnn[nH]2)CN3)cc1 (stereo not shown) [TTZ-1, N-(2-(1H-Tetrazol-5-yl)-3,4-dihydro-2H-benzo[b][1,4]oxazin-8-yl)-4-(heptyloxy)benzamide]	35 to 40%	36 ± 7%
